Source: PubChem BioAssay AID248 (DTP/NCI, 2004)
Several values for one entry are separate records, joined by “and”; a condition that tells them apart may be missing. Identical values can stand only once. Toxic doses and inconclusive results are not listed. No stated cut-off is given here; in the data, active means T/C of 150% or more; inactive means T/C below 125%. Square brackets hold non-standard residues; d marks the D form. Peptide text beside a SMILES is read from it. ξ: configuration not given here. ξV = CC(C)C(N)C(=O)O

Tested on: L1210 leukemia ip in BDF1 mice, survival T/C
Experiment: NCI In Vivo Anticancer Drug Screen. Data for tumor model L1210 Leukemia (intraperitoneal) in B6D2F1 (BDF1) mice
Conditions: endpoint: mean survival time, higher = longer survival
Outline: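 Survival endpoint. Drug-treated group vs vehicle group, expressed as T divided by C. Tumor passaged by transplantation.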

[1] = dose: 100.0 mg/kg/injection, schedule: Q01DX009 (ip), vehicle: saline
[2] = dose: 200.0 mg/kg/injection, schedule: Q01DX009 (ip), vehicle: saline
[3] = dose: 200.0 mg/kg/injection, schedule: Q01DX009 (ip), vehicle: saline with Tween-80
[4] = dose: 400.0 mg/kg/injection, schedule: Q01DX009 (ip), vehicle: saline with Tween-80
[5] = dose: 100.0 mg/kg/injection, schedule: Q04DX002 (ip), vehicle: Klucel (hydroxypropylcellulose) (HPC)
[6] = dose: 200.0 mg/kg/injection, schedule: Q04DX002 (ip), vehicle: Klucel (hydroxypropylcellulose) (HPC)
[7] = dose: 100.0 mg/kg/injection, schedule: Q01DX001 (ip), vehicle: carboxymethylcellulose (CMC)
[8] = dose: 100.0 mg/kg/injection, schedule: Q01DX001 (ip), vehicle: saline
[9] = dose: 200.0 mg/kg/injection, schedule: Q01DX001 (ip), vehicle: carboxymethylcellulose (CMC)
[10] = dose: 200.0 mg/kg/injection, schedule: Q01DX001 (ip), vehicle: saline
[11] = dose: 400.0 mg/kg/injection, schedule: Q01DX001 (ip), vehicle: carboxymethylcellulose (CMC)
[12] = dose: 100.0 mg/kg/injection, schedule: Q01DX009 (ip), vehicle: Klucel (hydroxypropylcellulose) (HPC)
[13] = dose: 100.0 mg/kg/injection, schedule: Q04DX003 (ip), vehicle: Klucel (hydroxypropylcellulose) (HPC)
[14] = dose: 200.0 mg/kg/injection, schedule: Q01DX009 (ip), vehicle: Klucel (hydroxypropylcellulose) (HPC)
[15] = dose: 200.0 mg/kg/injection, schedule: Q04DX003 (ip), vehicle: Klucel (hydroxypropylcellulose) (HPC)
[16] = dose: 400.0 mg/kg/injection, schedule: Q04DX003 (ip), vehicle: Klucel (hydroxypropylcellulose) (HPC)
[17] = dose: 100.0 mg/kg/injection, schedule: Q04DX003 (ip), vehicle: saline with Tween-80
[18] = dose: 200.0 mg/kg/injection, schedule: Q04DX003 (ip), vehicle: saline with Tween-80
[19] = dose: 400.0 mg/kg/injection, schedule: Q04DX003 (ip), vehicle: saline with Tween-80
[20] = dose: 400.0 mg/kg/injection, schedule: Q04DX002 (ip), vehicle: Klucel (hydroxypropylcellulose) (HPC)

Measured: T/C

CC(C)C(N)C(=O)NCC(=O)NCC(=O)O (stereo not drawn) (H-[ξV]-Gly-Gly-OH)
inactive: [1] 98 % of control | dose: 100.0 mg/kg/injection, schedule: Q04DX003 (ip), vehicle: saline 102 % of control | [2] 96 % of control | dose: 200.0 mg/kg/injection, schedule: Q04DX003 (ip), vehicle: saline 94 % of control | dose: 400.0 mg/kg/injection, schedule: Q01DX009 (ip), vehicle: saline 98 % of control | dose: 400.0 mg/kg/injection, schedule: Q04DX003 (ip), vehicle: saline 100 % of control

CCCCCOc1cc(C(C)=O)cc(OC)c1OC(=O)c1cc([N+](=O)[O-])cc([N+](=O)[O-])c1
inactive: dose: 100.0 mg/kg/injection, schedule: Q01DX009 (ip), vehicle: saline with Tween-80 94 % of control | [3] 94 % of control | [4] 102 % of control

CC1=CC2(C)Cc3cc(C)cc(C)c3S(=O)(=O)C2C(C(=O)O)=C1 (stereo unspecified)
inactive: dose: 50.0 mg/kg/injection, schedule: Q01DX001 (ip), vehicle: Klucel (hydroxypropylcellulose) (HPC) 102 % of control | dose: 100.0 mg/kg/injection, schedule: Q01DX001 (ip), vehicle: Klucel (hydroxypropylcellulose) (HPC) 101 % of control | dose: 200.0 mg/kg/injection, schedule: Q01DX001 (ip), vehicle: Klucel (hydroxypropylcellulose) (HPC) 98 % of control | dose: 400.0 mg/kg/injection, schedule: Q01DX001 (ip), vehicle: Klucel (hydroxypropylcellulose) (HPC) 96 % of control

C=COCCCCCCCCCCCC(CCCCCC)OC=C (stereo unspecified)
inactive: [5] 94 % of control | [6] 105 % of control

Nc1nc2c(ncn2C2OC(CO)C(O)C2O)c(=O)[nH]1 (stereo unspecified)
inactive: dose: 5.0 mg/kg/injection, schedule: Q01DX001 (ip), vehicle: saline 102 % of control | dose: 10.0 mg/kg/injection, schedule: Q01DX001 (ip), vehicle: saline 105 % of control | dose: 20.0 mg/kg/injection, schedule: Q01DX001 (ip), vehicle: saline 97 % of control | dose: 40.0 mg/kg/injection, schedule: Q01DX001 (ip), vehicle: saline 103 % of control | dose: 80.0 mg/kg/injection, schedule: Q01DX001 (ip), vehicle: saline 108 % of control | [7] 100 % of control | [8] 101 % of control and 105 % of control | [9] 97 % of control | [10] 101 % of control | [11] 97 % of control

O=S1(=O)C=C(Br)c2ccccc21
inactive: [12] 101 % of control | [13] 91 % of control | [14] 91 % of control | [15] 96 % of control | [16] 90 % of control

CC(=O)OC1CCC2(C)C(CCC3C2CCC2(C)C3CC3OC(CCC(C)O)C(C)C32)C1 (stereo unspecified)
inactive: dose: 25.0 mg/kg/injection, schedule: Q04DX002 (ip), vehicle: saline with Tween-80 102 % of control | dose: 50.0 mg/kg/injection, schedule: Q04DX002 (ip), vehicle: saline with Tween-80 98 % of control | dose: 100.0 mg/kg/injection, schedule: Q04DX002 (ip), vehicle: saline with Tween-80 94 % of control

ClCC[n+]1ccc(-c2cc[n+](CCCl)cc2)cc1
inactive: dose: 156.0 micrograms/kg/injection, schedule: Q01DX Z (ip), vehicle: saline 110 % of control | dose: 313.0 micrograms/kg/injection, schedule: Q01DX Z (ip), vehicle: saline 100 % of control | dose: 625.0 micrograms/kg/injection, schedule: Q01DX Z (ip), vehicle: saline 98 % of control | dose: 1250.0 micrograms/kg/injection, schedule: Q01DX Z (ip), vehicle: saline 98 % of control

CCOC(=O)Cc1nc2ccccc2[nH]c1=O
inactive: dose: 50.0 mg/kg/injection, schedule: Q04DX002 (ip), vehicle: Klucel (hydroxypropylcellulose) (HPC) 107 % of control | [5] 96 % of control | [6] 96 % of control

CCOC(=O)c1ccc(Nc2nc3ccccc3o2)cc1
inactive: [7] 91 % of control | [9] 94 % of control | [11] 93 % of control

CCCCCC(C1=NC(C)(C)CC(C)O1)c1ccccc1 (stereo unspecified)
inactive: [1] 103 % of control | dose: 100.0 mg/kg/injection, schedule: Q04DX003 (ip), vehicle: saline sonified 103 % of control | [2] 113 % of control | dose: 200.0 mg/kg/injection, schedule: Q04DX003 (ip), vehicle: saline sonified 117 % of control | dose: 400.0 mg/kg/injection, schedule: Q04DX003 (ip), vehicle: saline sonified 105 % of control

Cc1ccc(COC(=O)c2ccccc2)cc1
inactive: [12] 101 % of control | [13] 103 % of control | [14] 98 % of control | [15] 97 % of control | dose: 400.0 mg/kg/injection, schedule: Q01DX009 (ip), vehicle: Klucel (hydroxypropylcellulose) (HPC) 95 % of control | [16] 97 % of control

COP(=O)(NNc1cc(Cl)ccc1Cl)OC
inactive: [17] 104 % of control | [18] 106 % of control | [19] 101 % of control

N#[N+]c1ccc(Br)cc1-c1nc(N)nc(N)n1
inactive: dose: 12.5 mg/kg/injection, schedule: Q01DX009 (ip), vehicle: saline 92 % of control | dose: 25.0 mg/kg/injection, schedule: Q01DX009 (ip), vehicle: saline 101 % of control | dose: 25.0 mg/kg/injection, schedule: Q04DX003 (ip), vehicle: saline 113 % of control | dose: 50.0 mg/kg/injection, schedule: Q01DX009 (ip), vehicle: saline 100 % of control | dose: 50.0 mg/kg/injection, schedule: Q04DX003 (ip), vehicle: saline 98 % of control | [8] 104 % of control

O=C1C=CC(=O)N1c1ccc(Cl)cc1Br
inactive: dose: 5.0 mg/kg/injection, schedule: Q01DX009 (ip), vehicle: saline with Tween-80 91 % of control | dose: 10.0 mg/kg/injection, schedule: Q01DX009 (ip), vehicle: saline with Tween-80 91 % of control | dose: 20.0 mg/kg/injection, schedule: Q01DX009 (ip), vehicle: saline with Tween-80 91 % of control

COc1ccc(N=NN(C)C(=O)c2ccccc2)cc1
inactive: dose: 50.0 mg/kg/injection, schedule: Q01DX009 (ip), vehicle: Klucel (hydroxypropylcellulose) (HPC) 108 % of control | dose: 75.0 mg/kg/injection, schedule: Q01DX001 (ip), vehicle: Klucel (hydroxypropylcellulose) (HPC) 112 % of control | [12] 120 % of control | dose: 150.0 mg/kg/injection, schedule: Q01DX001 (ip), vehicle: Klucel (hydroxypropylcellulose) (HPC) 111 % of control | dose: 300.0 mg/kg/injection, schedule: Q01DX001 (ip), vehicle: Klucel (hydroxypropylcellulose) (HPC) 107 % of control

CNC(=O)Oc1cccc(NC(=O)OCC(C)(C)C)c1
inactive: [17] 96 % of control | [18] 102 % of control | [19] 97 % of control

CCOC(=O)C12CCCC1=CC(=O)CC2 (stereo unspecified)
inactive: [5] 107 % of control | [6] 121 % of control | [20] 104 % of control

c1ccc2sc(SCSc3nc4ccccc4s3)nc2c1
inactive: dose: 50.0 mg/kg/injection, schedule: Q04DX003 (ip), vehicle: saline with Tween-80 93 % of control | [17] 90 % of control | [18] 100 % of control

Cc1ccc(C)c(S(N)(=O)=O)c1
inactive: [5] 106 % of control | [6] 100 % of control | [20] 103 % of control

Cc1cc(Cl)ccc1NC(=O)Oc1cc(C)c(Cl)c(C)c1Cl
inactive: dose: 25.0 mg/kg/injection, schedule: Q01DX009 (ip), vehicle: saline with Tween-80 100 % of control and 90 % of control | dose: 50.0 mg/kg/injection, schedule: Q01DX009 (ip), vehicle: saline with Tween-80 95 % of control and 103 % of control | dose: 100.0 mg/kg/injection, schedule: Q01DX001 (ip), vehicle: saline with Tween-80 94 % of control | [17] 93 % of control and 109 % of control | dose: 200.0 mg/kg/injection, schedule: Q01DX001 (ip), vehicle: saline with Tween-80 97 % of control | [3] 97 % of control and 105 % of control | [18] 97 % of control and 108 % of control | dose: 400.0 mg/kg/injection, schedule: Q01DX001 (ip), vehicle: saline with Tween-80 101 % of control | [4] 90 % of control | [19] 103 % of control and 113 % of control

Brc1ccc([I+]c2ccccc2)cc1
inactive: dose: 50.0 mg/kg/injection, schedule: Q01DX001 (ip), vehicle: saline 103 % of control | [8] 106 % of control | [10] 95 % of control
